Measurements reported in ChEMBL document CHEMBL5143602, “Design, synthesis and antibacterial evaluation of pleuromutilin derivatives” (Bioorg Med Chem, 2022).
In brackets after ≈: the same amount, converted by molar mass.

Experiments:
Staphylococcus aureus [1] = test: Antibacterial activity against methicillin-resistant Staphylococcus aureus ATCC 43300 assessed as inhibition of bacterial growth incubated for 18 hrs by two-fold serial dilution method; format: functional
Enterococcus faecium = test: Antibacterial activity against Enterococcus faecium ATCC19434 assessed as inhibition of bacterial growth incubated for 18 hrs by two-fold serial dilution method; format: functional
[2] = test system: Staphylococcus epidermidis; test: Antibacterial activity against Staphylococcus epidermidis ATCC12228 assessed as inhibition of bacterial growth incubated for 18 hrs by two-fold serial dilution method; format: functional
Staphylococcus aureus [3] = test: Antibacterial activity against methicillin-sensitive Staphylococcus aureus ATCC 29213 assessed as inhibition of bacterial growth incubated for 18 hrs by two-fold serial dilution method; format: functional
[4] = test system: Mycoplasmoides pneumoniae; test: Antibacterial activity against drug resistant Mycoplasma pneumoniae assessed as inhibition of bacterial growth incubated for 18 hrs by two-fold serial dilution method; format: functional
HT-29 = test: Cytotoxicity against human HT-29 cells assessed as cell growth inhibition measured after 72 hrs by MTT assay; format: functional, cell-based; details: HT-29, 72 h
[5] = test system: Mycoplasmoides pneumoniae; test: Antibacterial activity against Mycoplasma pneumoniae ATCC29342 assessed as inhibition of bacterial growth incubated for 18 hrs by two-fold serial dilution method; format: functional
HGC-27 = test: Cytotoxicity against human HGC-27 cells assessed as cell growth inhibition measured after 72 hrs by MTT assay; format: functional, cell-based; details: HGC-27, 72 h
U-87 MG = test: Cytotoxicity against human U87 cells assessed as cell growth inhibition measured after 72 hrs by MTT assay; format: functional, cell-based, U-87MG ATCC
HepG2 = test: Cytotoxicity against human HepG2 cells assessed as cell growth inhibition measured after 72 hrs by MTT assay; format: functional, cell-based; details: HepG2, 72 h
[6] = test system: Mycoplasmoides pneumoniae; test: Antibacterial activity against Mycoplasma pneumoniae ATCC15531 assessed as inhibition of bacterial growth incubated for 18 hrs by two-fold serial dilution method; format: functional
MCF7 = test: Cytotoxicity against human MCF7 cells assessed as cell growth inhibition measured after 72 hrs by MTT assay; format: functional, cell-based; details: MCF7, 72 h

SMILES	MIC (Staphylococcus aureus [1]) [µg/mL]	MIC (Enterococcus faecium) [µg/mL]	MIC [2] [µg/mL]	MIC (Staphylococcus aureus [3]) [µg/mL]	MIC [4] [µg/mL]	IC50 (HT-29) [µM]	MIC [5] [µg/mL]	IC50 (HGC-27) [µM]	IC50 (U-87 MG) [µM]	IC50 (HepG2) [µM]	MIC [6] [µg/mL]	IC50 (MCF7) [µM]
C=C[C@]1(C)C[C@@H](OC(=O)CNC(=S)Nc2ccc3ccccc3c2)[C@]2(C)[C@H](C)CC[C@]3(CCC(=O)[C@H]32)[C@@H](C)[C@@H]1O	4 (≈ 7.11 µM)	32 (≈ 56.9 µM)	> 64	16 (≈ 28.4 µM)								
C=C[C@]1(C)C[C@@H](OC(=O)CNC(=O)Nc2ccc(F)cc2)[C@]2(C)[C@H](C)CC[C@]3(CCC(=O)[C@H]32)[C@@H](C)[C@@H]1O	0.125 (≈ 0.243 µM)	16 (≈ 31.1 µM)	> 64	0.5 (≈ 0.972 µM)	1 (≈ 1.94 µM)	> 10	0.125 (≈ 0.243 µM)	> 10	> 10	> 10	0.25 (≈ 0.486 µM)	> 10
C=C[C@]1(C)C[C@@H](OC(=O)CNC(=O)Nc2cccc3ccccc23)[C@]2(C)[C@H](C)CC[C@]3(CCC(=O)[C@H]32)[C@@H](C)[C@@H]1O	2 (≈ 3.66 µM)	16 (≈ 29.3 µM)	> 64	2 (≈ 3.66 µM)								
C=C[C@]1(C)C[C@@H](OC(=O)CNC(=O)Nc2ccc(F)cc2F)[C@]2(C)[C@H](C)CC[C@]3(CCC(=O)[C@H]32)[C@@H](C)[C@@H]1O	0.25 (≈ 0.469 µM)	16 (≈ 30 µM)	> 64	0.25 (≈ 0.469 µM)	1 (≈ 1.88 µM)	> 10	0.125 (≈ 0.235 µM)	> 10	> 10	> 10	0.25 (≈ 0.469 µM)	> 10
C=C[C@]1(C)C[C@@H](OC(=O)CNC(=S)NC(C)=O)[C@]2(C)[C@H](C)CC[C@]3(CCC(=O)[C@H]32)[C@@H](C)[C@@H]1O	2 (≈ 4.18 µM)	16 (≈ 33.4 µM)	> 64	2 (≈ 4.18 µM)								
C=C[C@]1(C)C[C@@H](OC(=O)CNC(=S)NCCCCCCCCCCCCCCCCCC)[C@]2(C)[C@H](C)CC[C@]3(CCC(=O)[C@H]32)[C@@H](C)[C@@H]1O	2 (≈ 2.9 µM)	32 (≈ 46.4 µM)	> 64	4 (≈ 5.8 µM)								
C=C[C@]1(C)C[C@@H](OC(=O)CNC(=O)Nc2ccc(Cl)cc2)[C@]2(C)[C@H](C)CC[C@]3(CCC(=O)[C@H]32)[C@@H](C)[C@@H]1O	0.25 (≈ 0.471 µM)	16 (≈ 30.1 µM)	> 64	0.25 (≈ 0.471 µM)		> 10		> 10	> 10	> 10		> 10
C=C[C@]1(C)C[C@@H](OC(=O)CNC(=S)NC(=O)c2ccc(Br)cc2)[C@]2(C)[C@H](C)CC[C@]3(CCC(=O)[C@H]32)[C@@H](C)[C@@H]1O	16 (≈ 25.8 µM)	16 (≈ 25.8 µM)	> 64	16 (≈ 25.8 µM)								
C=C[C@]1(C)C[C@@H](OC(=O)CNC(=O)Nc2ccccc2Cl)[C@]2(C)[C@H](C)CC[C@]3(CCC(=O)[C@H]32)[C@@H](C)[C@@H]1O	0.5 (≈ 0.941 µM)	8 (≈ 15.1 µM)	> 64	0.5 (≈ 0.941 µM)								
C=C[C@]1(C)C[C@@H](OC(=O)CNC(=S)NC(=O)c2ccc(Cl)cc2)[C@]2(C)[C@H](C)CC[C@]3(CCC(=O)[C@H]32)[C@@H](C)[C@@H]1O	16 (≈ 27.8 µM)	8 (≈ 13.9 µM)	> 64	16 (≈ 27.8 µM)								
C=C[C@]1(C)C[C@@H](OC(=O)CNC(=S)NC(=O)c2ccc(F)cc2)[C@]2(C)[C@H](C)CC[C@]3(CCC(=O)[C@H]32)[C@@H](C)[C@@H]1O	4 (≈ 7.16 µM)	8 (≈ 14.3 µM)	> 64	4 (≈ 7.16 µM)								
C=C[C@]1(C)C[C@@H](OC(=O)CNC(=S)Nc2ccccc2)[C@]2(C)[C@H](C)CC[C@]3(CCC(=O)[C@H]32)[C@@H](C)[C@@H]1O	1 (≈ 1.95 µM)	16 (≈ 31.2 µM)	> 64	1 (≈ 1.95 µM)								
C=C[C@]1(C)C[C@@H](OC(=O)CNC(=O)Nc2cccc(Cl)c2)[C@]2(C)[C@H](C)CC[C@]3(CCC(=O)[C@H]32)[C@@H](C)[C@@H]1O	0.5 (≈ 0.941 µM)	8 (≈ 15.1 µM)	> 64	1 (≈ 1.88 µM)								
C=C[C@]1(C)C[C@@H](OC(=O)CNC(=O)Nc2ccccc2Br)[C@]2(C)[C@H](C)CC[C@]3(CCC(=O)[C@H]32)[C@@H](C)[C@@H]1O	0.25 (≈ 0.434 µM)	32 (≈ 55.6 µM)	> 64	0.25 (≈ 0.434 µM)	2 (≈ 3.47 µM)	> 10	0.5 (≈ 0.869 µM)	> 10	> 10	> 10	0.5 (≈ 0.869 µM)	> 10
C=C[C@]1(C)C[C@@H](OC(=O)CNC(=S)NC2CCCCC2)[C@]2(C)[C@H](C)CC[C@]3(CCC(=O)[C@H]32)[C@@H](C)[C@@H]1O	1 (≈ 1.93 µM)	32 (≈ 61.7 µM)	> 64	1 (≈ 1.93 µM)								
C=C[C@]1(C)C[C@@H](OC(=O)CNC(=O)NC2CCCCC2)[C@]2(C)[C@H](C)CC[C@]3(CCC(=O)[C@H]32)[C@@H](C)[C@@H]1O	2 (≈ 3.98 µM)	8 (≈ 15.9 µM)	> 64	2 (≈ 3.98 µM)								

SMILES	MIC (Staphylococcus aureus [1]) [µg/mL]	MIC (Enterococcus faecium) [µg/mL]	MIC [2] [µg/mL]	MIC (Staphylococcus aureus [3]) [µg/mL]	MIC [4] [µg/mL]	IC50 (HT-29) [µM]	MIC [5] [µg/mL]	IC50 (HGC-27) [µM]	IC50 (U-87 MG) [µM]	IC50 (HepG2) [µM]	MIC [6] [µg/mL]	IC50 (MCF7) [µM]
C=C[C@]1(C)C[C@@H](OC(=O)CNC(=O)Nc2ccccc2)[C@]2(C)[C@H](C)CC[C@]3(CCC(=O)[C@H]32)[C@@H](C)[C@@H]1O	0.5 (≈ 1.01 µM)	32 (≈ 64.4 µM)	> 64	0.5 (≈ 1.01 µM)								
C=C[C@]1(C)C[C@@H](OC(=O)CNC(=O)Nc2cc(Cl)cc(Cl)c2)[C@]2(C)[C@H](C)CC[C@]3(CCC(=O)[C@H]32)[C@@H](C)[C@@H]1O	0.5 (≈ 0.884 µM)	32 (≈ 56.6 µM)	> 64	0.5 (≈ 0.884 µM)								
C=C[C@]1(C)C[C@@H](OC(=O)CNC(=O)NC(=O)c2cccc(F)c2)[C@]2(C)[C@H](C)CC[C@]3(CCC(=O)[C@H]32)[C@@H](C)[C@@H]1O	0.25 (≈ 0.461 µM)	16 (≈ 29.5 µM)	> 64	0.5 (≈ 0.921 µM)		> 10		> 10	> 10	> 10		> 10
C=C[C@]1(C)C[C@@H](OC(=O)CNC(=O)Nc2ccccc2-c2ccccc2)[C@]2(C)[C@H](C)CC[C@]3(CCC(=O)[C@H]32)[C@@H](C)[C@@H]1O	4 (≈ 6.98 µM)	32 (≈ 55.9 µM)	> 64	4 (≈ 6.98 µM)								
C=C[C@]1(C)C[C@@H](OC(=O)CNC(=O)NCC)[C@]2(C)[C@H](C)CC[C@]3(CCC(=O)[C@H]32)[C@@H](C)[C@@H]1O	2 (≈ 4.46 µM)	32 (≈ 71.3 µM)	> 64	2 (≈ 4.46 µM)								
C=C[C@]1(C)C[C@@H](OC(=O)CNC(=S)Nc2ccc(OC)cc2)[C@]2(C)[C@H](C)CC[C@]3(CCC(=O)[C@H]32)[C@@H](C)[C@@H]1O	0.5 (≈ 0.921 µM)	16 (≈ 29.5 µM)	> 64	1 (≈ 1.84 µM)								
C=C[C@]1(C)C[C@@H](OC(=O)CNC(=S)NC(=O)c2ccccc2)[C@]2(C)[C@H](C)CC[C@]3(CCC(=O)[C@H]32)[C@@H](C)[C@@H]1O	> 64	32 (≈ 59.2 µM)	> 64	> 64								
C=C[C@]1(C)C[C@@H](OC(=O)CNC(=O)NCCC)[C@]2(C)[C@H](C)CC[C@]3(CCC(=O)[C@H]32)[C@@H](C)[C@@H]1O	2 (≈ 4.32 µM)	32 (≈ 69.2 µM)	> 64	2 (≈ 4.32 µM)								
C=C[C@]1(C)C[C@@H](OC(=O)CNC(=O)Nc2ccc(Br)cc2)[C@]2(C)[C@H](C)CC[C@]3(CCC(=O)[C@H]32)[C@@H](C)[C@@H]1O		8 (≈ 13.9 µM)	> 64			> 10	0.5 (≈ 0.869 µM)	> 10	> 10	> 10	1 (≈ 1.74 µM)	> 10
C=C[C@]1(C)C[C@@H](OC(=O)CNC(=O)NC(=O)c2ccccc2F)[C@]2(C)[C@H](C)CC[C@]3(CCC(=O)[C@H]32)[C@@H](C)[C@@H]1O	0.5 (≈ 0.921 µM)	8 (≈ 14.7 µM)	> 64	0.5 (≈ 0.921 µM)	2 (≈ 3.69 µM)		> 8				1 (≈ 1.84 µM)	
C=C[C@]1(C)C[C@@H](OC(=O)CO)[C@]2(C)[C@H](C)CC[C@]3(CCC(=O)[C@H]32)[C@@H](C)[C@@H]1O [PLEUROMULIN]	2 (≈ 5.28 µM)	32 (≈ 84.5 µM)	16 (≈ 42.3 µM)	1 (≈ 2.64 µM)	0.25 (≈ 0.66 µM)		0.0625 (≈ 0.165 µM)				0.125 (≈ 0.33 µM)	
C=C[C@]1(C)C[C@@H](OC(=O)CNC(=S)Nc2ccccc2C)[C@]2(C)[C@H](C)CC[C@]3(CCC(=O)[C@H]32)[C@@H](C)[C@@H]1O	2 (≈ 3.8 µM)	16 (≈ 30.4 µM)	> 64	4 (≈ 7.59 µM)								
C=C[C@]1(C)C[C@@H](OC(=O)CNC(=S)Nc2ccc(C(F)(F)F)cc2)[C@]2(C)[C@H](C)CC[C@]3(CCC(=O)[C@H]32)[C@@H](C)[C@@H]1O	1 (≈ 1.72 µM)	8 (≈ 13.8 µM)	> 64	1 (≈ 1.72 µM)								
C=C[C@]1(C)C[C@@H](OC(=O)CNC(=S)Nc2ccc(F)cc2)[C@]2(C)[C@H](C)CC[C@]3(CCC(=O)[C@H]32)[C@@H](C)[C@@H]1O	0.25 (≈ 0.471 µM)	16 (≈ 30.1 µM)	> 64	1 (≈ 1.88 µM)								
C=C[C@]1(C)C[C@@H](OC(=O)CNC(=O)Nc2cccc(C)c2)[C@]2(C)[C@H](C)CC[C@]3(CCC(=O)[C@H]32)[C@@H](C)[C@@H]1O	0.5 (≈ 0.979 µM)	16 (≈ 31.3 µM)	> 64	0.125 (≈ 0.245 µM)								
